One block for each molecule: values may come before it. Activity calls are given as the source filed them. The rule behind the calls is not given here.
What was measured:
[1] = Downregulation of ERalpha protein expression in tumor of CB17 SCID mouse xenografted with human MCF7 cells harboring wild type ESR1 at 30 mg/kg, po qd for 3 days and measured after 24 hrs last dose by Western blot analysis relative to control; assay type: functional; conditions: time 3 day
[2] = Downregulation of ERalpha protein expression in tumor of CB17 SCID mouse xenografted with human MCF7 cells harboring wild type ESR1 at 30 mg/kg, po qd for 3 days and measured after 3 hrs last dose by Western blot analysis relative to control; assay type: functional; conditions: time 3 day
[3] = Downregulation of ERalpha protein expression in tumor of CB17 SCID mouse xenografted with human MCF7 cells harboring ESR1 Y537S mutant at 30 mg/kg, po qd for 3 days and measured after 6 hrs last dose by Western blot analysis relative to control; assay type: functional; conditions: time 3 day
MCF7 [4] = assay: Antitumor activity against human MCF7 cells harboring wild type ESR1 xenografted in CB17 SCID mouse assessed as tumor growth inhibition at 10 mg/kg, po qd for 5 weeks; assay type: functional; conditions: MCF7, 840 h, read-out: TGI
MCF7 [5] = assay: Antitumor activity against human MCF7 cells harboring ESR1 Y537S mutant xenografted in CB17 SCID mouse assessed as tumor growth inhibition at 30 mg/kg, po qd for 4 weeks; assay type: functional
MCF7 [6] = assay: Antitumor activity against human MCF7 cells harboring ESR1 Y537S mutant xenografted in CB17 SCID mouse assessed as tumor growth inhibition at 30 mg/kg, po qd for 4 weeks and measured 30 days post last dose; assay type: functional
MCF7 [7] = assay: Antitumor activity against human MCF7 cells harboring ESR1 D538G mutant xenografted in CB17 SCID mouse assessed as tumor growth inhibition at 30 mg/kg, po qd for 4 weeks; assay type: functional; conditions: MCF7, 672 h, read-out: TGI
MCF7 [8] = assay: Antitumor activity against human MCF7 cells harboring ESR1 D538G mutant xenografted in CB17 SCID mouse assessed as tumor growth inhibition at 30 mg/kg, po qd for 4 weeks and measured 1 week post last dose; assay type: functional, organism-based
[9] = Toxicity in CB17 SCID mouse xenografted with human MCF7 cells harboring wild type ESR1 assessed as body weight change at 10 mg/kg,po qd for 5 weeks; assay type: organism-based; conditions: in vivo, 840 h
[10] = Toxicity in CB17 SCID mouse xenografted with human MCF7 cells harboring ESR1 Y537S mutant assessed as body weight change at 30 mg/kg,po qd for 4 weeks; assay type: organism-based; conditions: in vivo, 672 h
[11] = Toxicity in CB17 SCID mouse xenografted with human MCF7 cells harboring ESR1 D538G mutant assessed as body weight change at 30 mg/kg,po qd for 4 weeks; assay type: organism-based; conditions: in vivo, 672 h
[12] = Volume of distribution at steady state in Sprague-Dawley rat at 1 mg/kg, iv and measured upto 24 hrs by LC-MS/MS analysis; conditions: in vivo
[13] = Half life in Sprague-Dawley rat at 3 mg/kg, po and measured upto 24 hrs by LC-MS/MS analysis; conditions: in vivo
[14] = AUC in Sprague-Dawley rat at 3 mg/kg, po and measured upto 24 hrs by LC-MS/MS analysis; assay type: ADME, organism-based; design: dose 3 mg/kg, time < 24 hrs, route po; conditions: in vivo; for AUC at 24 h: Sprague-Dawley
[15] = molecular target: T1, Protein cereblon/Estrogen receptor (Homo sapiens, UniProt P03372+Q96SW2); assay: Protac activity at human ERalpha in human MCF7 cells assessed as protein degradation incubated for 12 hrs by ICW blot assay; assay type: cell-based
Target sequence in this assay (P03372 whole entry): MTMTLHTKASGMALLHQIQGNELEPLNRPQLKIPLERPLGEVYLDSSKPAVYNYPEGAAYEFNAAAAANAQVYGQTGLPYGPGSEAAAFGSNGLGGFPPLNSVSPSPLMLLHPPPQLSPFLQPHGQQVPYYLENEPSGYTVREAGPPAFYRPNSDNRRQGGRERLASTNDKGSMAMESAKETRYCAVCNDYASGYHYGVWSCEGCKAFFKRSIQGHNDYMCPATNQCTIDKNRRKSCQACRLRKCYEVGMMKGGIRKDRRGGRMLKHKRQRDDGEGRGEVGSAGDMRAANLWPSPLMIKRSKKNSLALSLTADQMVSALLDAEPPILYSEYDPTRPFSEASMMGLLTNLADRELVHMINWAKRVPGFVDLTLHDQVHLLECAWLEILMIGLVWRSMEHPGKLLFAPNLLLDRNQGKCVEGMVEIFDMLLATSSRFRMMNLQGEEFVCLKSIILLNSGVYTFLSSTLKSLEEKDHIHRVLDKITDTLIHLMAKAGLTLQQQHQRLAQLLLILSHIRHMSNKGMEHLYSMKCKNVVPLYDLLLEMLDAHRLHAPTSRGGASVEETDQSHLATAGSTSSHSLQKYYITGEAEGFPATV
Target sequence in this assay (Q96SW2 whole entry): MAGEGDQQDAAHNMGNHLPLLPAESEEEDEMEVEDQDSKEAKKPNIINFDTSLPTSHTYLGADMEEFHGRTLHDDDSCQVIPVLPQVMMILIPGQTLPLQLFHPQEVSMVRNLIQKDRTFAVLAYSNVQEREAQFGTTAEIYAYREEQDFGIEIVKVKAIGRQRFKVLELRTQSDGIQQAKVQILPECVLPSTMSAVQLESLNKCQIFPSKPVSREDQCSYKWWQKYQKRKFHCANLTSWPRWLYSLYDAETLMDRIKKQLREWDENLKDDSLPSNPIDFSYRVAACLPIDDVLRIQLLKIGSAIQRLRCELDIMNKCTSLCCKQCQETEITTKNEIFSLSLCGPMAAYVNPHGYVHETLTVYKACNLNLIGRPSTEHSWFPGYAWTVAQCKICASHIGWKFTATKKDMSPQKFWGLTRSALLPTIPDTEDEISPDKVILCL

[16] = molecular target: T1, Protein cereblon/Estrogen receptor; assay: Protac activity at human ERalpha in human MCF7 cells assessed as induction of ERalpha degradation by measuring maximum efficacy at 1 uM incubated for 12 hrs by ICW blot assay relative to control; assay type: cell-based
Target sequence in this assay (P03372 whole entry, looked up): as the sequence (P03372 whole entry) above
Target sequence in this assay (Q96SW2 whole entry, looked up): as the sequence (Q96SW2 whole entry) above

[17] = rat, in vivo, po, 3 mg/kg, 24 h
in vivo [18] = conditions: Sprague-Dawley, rat, po, 3 mg/kg
[19] = Plasma concentration in Sprague-Dawley rat at 3 mg/kg,po and mesured after 1 hrs by LC-MS/MS analysis; assay type: ADME, organism-based
[20] = Plasma concentration in Sprague-Dawley rat at 3 mg/kg,po and mesured after 3 hrs by LC-MS/MS analysis; assay type: ADME, organism-based
[21] = Plasma concentration in Sprague-Dawley rat at 3 mg/kg,po and mesured after 6 hrs by LC-MS/MS analysis; assay type: ADME, organism-based
[22] = Plasma protein binding in human; assay type: ADME, cell-free; conditions: read-out: PPB (converted)
[23] = Plasma protein binding in dog; assay type: ADME, cell-free, Canis lupus familiaris; conditions: read-out: PPB (converted)
[24] = Plasma protein binding in monkey; assay type: ADME, cell-free, Macaca mulatta; conditions: rhesus monkey, read-out: PPB (converted)
[25] = Plasma protein binding in rat; assay type: ADME, cell-free; conditions: read-out: PPB (converted)
[26] = Plasma protein binding in mouse; assay type: ADME, cell-free; conditions: read-out: PPB (converted)
[27] = Clearance in Sprague-Dawley rat at 1 mg/kg, iv and measured upto 24 hrs by LC-MS/MS analysis; conditions: in vivo
in vivo [28] = conditions: Sprague-Dawley, rat, po, 3 mg/kg; remark: listed apart in the source
[29] = Plasma concentration in Sprague-Dawley rat at 5 mg/kg,po and mesured after 1 hrs by LC-MS/MS analysis; assay type: ADME, organism-based
[30] = Plasma concentration in Sprague-Dawley rat at 5 mg/kg,po and mesured after 3 hrs by LC-MS/MS analysis; assay type: ADME, organism-based
[31] = Plasma concentration in Sprague-Dawley rat at 5 mg/kg,po and mesured after 6 hrs by LC-MS/MS analysis; assay type: ADME, organism-based
[32] = Plasma concentration in Sprague-Dawley rat at 3 mg/kg,po and mesured after 24 hrs by LC-MS/MS analysis; assay type: ADME, organism-based
[33] = Volume of distribution at steady state in ICR mouse at 1 mg/kg, iv and measured upto 24 hrs by LC-MS/MS analysis; assay type: ADME, organism-based; conditions: in vivo, read-out: Vdss
[34] = Clearance in ICR mouse at 1 mg/kg, iv and measured upto 24 hrs by LC-MS/MS analysis; assay type: ADME, organism-based; conditions: in vivo
[35] = Half life in ICR mouse at 3 mg/kg, po and measured upto 24 hrs by LC-MS/MS analysis; assay type: ADME, organism-based; conditions: in vivo
[36] = Cmax in ICR mouse at 3 mg/kg, po and measured upto 24 hrs by LC-MS/MS analysis; assay type: ADME, organism-based; design: dose 3 mg/kg, time < 24 hrs, route po; conditions: in vivo
[37] = AUC in ICR mouse at 3 mg/kg, po and measured upto 24 hrs by LC-MS/MS analysis; assay type: ADME, organism-based; design: dose 3 mg/kg, time < 24 hrs, route po; conditions: in vivo
[38] = Oral bioavailability in ICR mouse at 3 mg/kg and measured upto 24 hrs by LC-MS/MS analysis; assay type: ADME, organism-based; conditions: in vivo

SMILES: O=C1CC[C@H](N2Cc3cc(N4CCN(CC5CCN(c6ccc([C@@H]7c8ccc(O)cc8CC[C@@H]7c7ccccc7)cc6)CC5)CC4)ccc3C2=O)C(=O)N1 [VEPDEGESTRANT]
Activity [1]: 78% | Activity [2]: 83% | Activity [3]: 77% | inhibition in vivo at 10 mg/kg (MCF7 [4]): 87% | Activity (MCF7 [5]): Active | Activity (MCF7 [6]): Active | inhibition in vivo at 30 mg/kg (MCF7 [7]): 47% | Activity (MCF7 [8]): Active | Activity [9]: Non-Toxic | Activity [10]: Non-Toxic | Activity [11]: Non-Toxic

SMILES: O=C1CCC(N2C(=O)c3cc4c(cc3C2=O)CN(CC2CCN(CC3CCN(c5ccc([C@@H]6c7ccc(O)cc7CC[C@@H]6c6ccccc6)cc5)CC3)CC2)C4)C(=O)N1 (some centres undefined)
Vd at 24 h [12]: 55.4 L/kg | half-life at 24 h [13]: 16 h | AUC ([14]; 24 h): 399 ng·h/mL | DC50 [15]: 4.3 nM | Emax [16]: 79% | F [17]: 36% | Cmax at 24 h (in vivo [18]): 24.9 ng/mL

SMILES: CN1Cc2cc3c(cc2C1)C(=O)N(C1CCC(=O)NC1=O)C3=O (centres undefined)
fraction unbound [22]: 0.875 | fraction unbound [23]: 0.83 | fraction unbound [24]: 0.856 | fraction unbound [25]: 0.635 | fraction unbound [26]: 0.737 | Vd at 24 h [12]: 5 L/kg | clearance at 24 h [27]: 29.2 mL/min/kg | half-life at 24 h [13]: 1.8 h | AUC at 24 h [14]: 1150 ng·h/mL | Cmax at 24 h (in vivo [18]): 228 ng/mL | bioavailability at 24 h (in vivo [28]): 70%

SMILES: C[C@@H]1Cc2c([nH]c3ccccc23)[C@@H](c2c(F)cc(N3CCC4(CCN(C(=O)CN5Cc6cc7c(cc6C5)C(=O)N(C5CCC(=O)NC5=O)C7=O)CC4)CC3)cc2F)N1CC(C)(C)F (some centres undefined)
DC50 [15]: 0.8 nM | Emax [16]: 83% | concentration at 1 h [19]: 7.9 ng/mL | concentration at 3 h [20]: 8.2 ng/mL | concentration at 6 h [21]: 8.3 ng/mL | concentration at 24 h [32]: 4 ng/mL

SMILES: O=C1CCC(N2C(=O)c3cc4c(cc3C2=O)CN(CC(=O)N2CCC3(CC2)CCN(c2ccc([C@@H]5c6ccc(O)cc6CC[C@@H]5c5ccccc5)cc2)CC3)C4)C(=O)N1 (some centres undefined)
Vd at 24 h [12]: 1.6 L/kg | clearance at 24 h [27]: 20 mL/min/kg | half-life at 24 h [13]: 2.5 h | AUC at 24 h [14]: 328 ng·h/mL | DC50 [15]: 5.5 nM | Emax [16]: 90% | Vd [33]: 2.2 L/kg | clearance [34]: 31 mL/min/kg | half-life [35]: 3.1 h | Cmax [36]: 146 ng/mL | AUC at 24 h [37]: 550 ng·h/mL | bioavailability [38]: 35% | Cmax at 24 h (in vivo [18]): 69.5 ng/mL | bioavailability at 24 h (in vivo [28]): 13%

More lines, in order of falling DC50 [15], values ahead:

DC50 [15]: 0.8 nM | Emax [16]: 106% | concentration at 1 h [29]: 8.3 ng/mL | concentration at 3 h [30]: 14 ng/mL | concentration at 6 h [31]: 10.3 ng/mL
SMILES: C[C@@H]1Cc2c([nH]c3ccccc23)[C@@H](c2c(F)cc(N3CCC4(CCN(C(=O)CN5Cc6cc7c(cc6C5)C(=O)N(C5CCC(=O)NC5=O)C7=O)CC4)CC3)cc2F)N1CC(F)F (some centres undefined)

DC50 [15]: 0.1 nM | Emax [16]: 97% | concentration at 1 h [19]: 9.3 ng/mL | concentration at 3 h [20]: 6.6 ng/mL | concentration at 6 h [21]: 3 ng/mL
SMILES: C[C@@H]1Cc2c([nH]c3ccccc23)[C@@H](c2c(F)cc(N3CCC4(CCN(C(=O)CN5Cc6cc7c(cc6C5)C(=O)N(C5CCC(=O)NC5=O)C7=O)CC4)CC3)cc2F)N1CC(F)(F)CO (some centres undefined)

— ChEMBL document CHEMBL5321293, “Discovery of ERD-3111 as a Potent and Orally Efficacious Estrogen Receptor PROTAC Degrader with Strong Antitumor Activity” (J Med Chem, 2023)
